Values joined by “and” are separate entries in the source; they are usually repeats but may differ in a detail not shown here. Identical values can stand only once. Inconclusive results and toxic doses are left out.
Tested on: L1210 leukemia ip in BDF1 mice, survival T/C
Experiment: NCI In Vivo Anticancer Drug Screen. Data for tumor model L1210 Leukemia (intraperitoneal) in B6D2F1 (BDF1) mice
Conditions: endpoint: mean survival time, higher = longer survival
Method in brief: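 Value reflects the ratio of survival in compound-treated mice to survival in vehicle-treated controls, with both groups carrying the same transplanted tumor.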

[1] = dose: 100.0 mg/kg/injection, schedule: Q01DX001 (ip), vehicle: saline
[2] = dose: 100.0 mg/kg/injection, schedule: Q01DX009 (ip), vehicle: saline
[3] = dose: 100.0 mg/kg/injection, schedule: Q04DX003 (ip), vehicle: saline
[4] = dose: 200.0 mg/kg/injection, schedule: Q01DX001 (ip), vehicle: saline
[5] = dose: 200.0 mg/kg/injection, schedule: Q01DX009 (ip), vehicle: saline
[6] = dose: 200.0 mg/kg/injection, schedule: Q04DX003 (ip), vehicle: saline
[7] = dose: 400.0 mg/kg/injection, schedule: Q01DX001 (ip), vehicle: saline
[8] = dose: 400.0 mg/kg/injection, schedule: Q01DX009 (ip), vehicle: saline
[9] = dose: 400.0 mg/kg/injection, schedule: Q04DX003 (ip), vehicle: saline
[10] = dose: 75.0 mg/kg/injection, schedule: Q01DX001 (ip), vehicle: saline
[11] = dose: 150.0 mg/kg/injection, schedule: Q01DX001 (ip), vehicle: saline
[12] = dose: 100.0 mg/kg/injection, schedule: Q04DX003 (ip), vehicle: Klucel (hydroxypropylcellulose) (HPC)
[13] = dose: 200.0 mg/kg/injection, schedule: Q01DX009 (ip), vehicle: Klucel (hydroxypropylcellulose) (HPC)
[14] = dose: 200.0 mg/kg/injection, schedule: Q04DX003 (ip), vehicle: Klucel (hydroxypropylcellulose) (HPC)
[15] = dose: 400.0 mg/kg/injection, schedule: Q01DX009 (ip), vehicle: Klucel (hydroxypropylcellulose) (HPC)
[16] = dose: 400.0 mg/kg/injection, schedule: Q04DX003 (ip), vehicle: Klucel (hydroxypropylcellulose) (HPC)
[17] = dose: 100.0 mg/kg/injection, schedule: Q04DX003 (ip), vehicle: saline with Tween-80
[18] = dose: 100.0 mg/kg/injection, schedule: Q01DX001 (ip), vehicle: carboxymethylcellulose (CMC)
[19] = dose: 200.0 mg/kg/injection, schedule: Q01DX001 (ip), vehicle: carboxymethylcellulose (CMC)
[20] = dose: 400.0 mg/kg/injection, schedule: Q01DX001 (ip), vehicle: carboxymethylcellulose (CMC)
[21] = dose: 100.0 mg/kg/injection, schedule: Q01DX009 (ip), vehicle: saline with Tween-80
[22] = dose: 200.0 mg/kg/injection, schedule: Q01DX009 (ip), vehicle: saline with Tween-80
[23] = dose: 400.0 mg/kg/injection, schedule: Q01DX009 (ip), vehicle: saline with Tween-80
[24] = dose: 400.0 mg/kg/injection, schedule: Q04DX003 (ip), vehicle: saline with Tween-80
[25] = dose: 100.0 mg/kg/injection, schedule: Q01DX001 (ip), vehicle: Klucel (hydroxypropylcellulose) (HPC)
[26] = dose: 200.0 mg/kg/injection, schedule: Q01DX001 (ip), vehicle: Klucel (hydroxypropylcellulose) (HPC)
[27] = dose: 400.0 mg/kg/injection, schedule: Q01DX001 (ip), vehicle: Klucel (hydroxypropylcellulose) (HPC)

In the case of COC(=O)c1csc(-c2csc(CCN)n2)n1, the T/C [1] is reported as 102 % of control, the T/C [2] is reported as 100 % of control and the T/C [3] is reported as 95 % of control. The T/C [4] was 98 % of control, the T/C [5] was 98 % of control and the T/C [6] was 98 % of control. For the same compound, the T/C [7] was 101 % of control, the T/C [8] was 89 % of control and the T/C [9] was 103 % of control.
Nc1n[nH]c2ccccc12 was tested, and the T/C (dose: 50.0 mg/kg/injection, schedule: Q04DX002 (ip), vehicle: gum acacia) was 104 % of control, the T/C (dose: 100.0 mg/kg/injection, schedule: Q04DX002 (ip), vehicle: gum acacia) was 107 % of control and the T/C (dose: 200.0 mg/kg/injection, schedule: Q04DX002 (ip), vehicle: gum acacia) was 100 % of control.
CC(C)C(NC(=O)OCc1ccccc1)C(=O)O (stereo not drawn) was tested, and the T/C (dose: 9.37 mg/kg/injection, schedule: Q01DX009 (ip), vehicle: saline) was 98 % of control, the T/C (dose: 18.75 mg/kg/injection, schedule: Q01DX009 (ip), vehicle: saline) was 93 % of control and the T/C (dose: 37.5 mg/kg/injection, schedule: Q01DX009 (ip), vehicle: saline) was 100 % of control. For the same compound, the T/C (dose: 37.5 mg/kg/injection, schedule: Q04DX003 (ip), vehicle: saline) was 103 % of control, the T/C [10] was 96 % of control and the T/C (dose: 75.0 mg/kg/injection, schedule: Q04DX003 (ip), vehicle: saline) was 101 % of control. The T/C [11] was 102 % of control.
With BrC1C2C=CCC1CC2 (stereo not drawn) the T/C [2] was 91 % of control, the T/C [3] was 96 % of control and the T/C [5] was 97 % of control. For the same compound, the T/C [6] was 96 % of control, the T/C [8] was 94 % of control and the T/C [9] was 94 % of control.
With Cc1ccc(S(=O)(=O)N/N=C\c2cc(Cl)ccc2O)cc1 the T/C (dose: 100.0 mg/kg/injection, schedule: Q01DX009 (ip), vehicle: Klucel (hydroxypropylcellulose) (HPC)) was 105 % of control, the T/C [12] was 100 % of control and the T/C [13] was 100 % of control. The T/C [14] was 103 % of control, the T/C [15] was 103 % of control and the T/C [16] was 100 % of control.
In the case of O=C(O)c1c(O)cc(=O)oc1-c1ccc(Cl)cc1Cl, the T/C [10] is reported as 101 % of control, the T/C [11] is reported as 101 % of control and the T/C (dose: 300.0 mg/kg/injection, schedule: Q01DX001 (ip), vehicle: saline) is reported as 106 % of control.
With N#CC(C#N)=C1Cc2ccccc2C1 the T/C (dose: 50.0 mg/kg/injection, schedule: Q04DX003 (ip), vehicle: saline with Tween-80) was 109 % of control and the T/C [17] was 109 % of control.
In the case of CCN(CC)CC(OC)C(COC)OC(=O)C(c1ccccc1)c1ccccc1 (stereo not drawn), the T/C (dose: 13.0 mg/kg/injection, schedule: Q01DX Z (ip), vehicle: saline) is reported as 105 % of control, the T/C (dose: 20.0 mg/kg/injection, schedule: Q01DX Z (ip), vehicle: saline) is reported as 98 % of control and the T/C (dose: 30.0 mg/kg/injection, schedule: Q01DX Z (ip), vehicle: saline) is reported as 102 % of control.
For CCN(CC)C(=O)Nc1ccc([N+](=O)[O-])cc1, the T/C [18] was 97 % of control, the T/C [12] was 109 % of control and the T/C [19] was 101 % of control. For the same compound, the T/C [14] was 96 % of control, the T/C [20] was 97 % of control and the T/C [16] was 107 % of control.
NNC(=O)CCC(=O)NN was tested, and the T/C [21] was 100 % of control, the T/C [22] was 99 % of control and the T/C [23] was 100 % of control.
CNCC(N)=O was tested, and the T/C (dose: 50.0 mg/kg/injection, schedule: Q01DX001 (ip), vehicle: carboxymethylcellulose (CMC)) was 108 % of control, the T/C [18] was 105 % of control and the T/C [19] was 98 % of control. The T/C [20] was 95 % of control.
With CCSc1nc2c([nH]1)c(=S)n(C)c(=O)n2C the T/C [1] was 96 % of control, the T/C [2] was 100 % of control and the T/C [3] was 109 % of control. The T/C [4] was 112 % of control, the T/C [5] was 89 % of control and the T/C [6] was 98 % of control. The T/C [7] was 95 % of control, the T/C [8] was 103 % of control and the T/C [9] was 98 % of control.
With O=C(COC1CCCCC1)OC1CCCCC1 the T/C [21] was 95 % of control, the T/C [17] was 98 % of control and the T/C [22] was 96 % of control. The T/C [23] was 94 % of control and the T/C [24] was 86 % of control.
In the case of CN(N=O)C(=O)NCC1OC(OC2(CO)OC(CNC(=O)N(C)N=O)C(O)C2O)C(O)C(O)C1O (stereo not drawn), the T/C (dose: 50.0 mg/kg/injection, schedule: Q01DX009 (ip), vehicle: saline with Tween-80) is reported as 107 % of control, the T/C (dose: 50.0 mg/kg/injection, schedule: Q01DX009 (ip), vehicle: saline) is reported as 91 % of control and the T/C [21] is reported as 121 % of control. For the same compound, the T/C [2] was 109 % of control and the T/C [23] was 154 % of control.
In the case of CCC1(C)CC(=O)NC(=O)C1.[Tl], the T/C (dose: 3.12 mg/kg/injection, schedule: Q01DX009 (ip), vehicle: water) is reported as 100 % of control, the T/C (dose: 3.12 mg/kg/injection, schedule: Q04DX003 (ip), vehicle: water) is reported as 97 % of control and the T/C (dose: 6.25 mg/kg/injection, schedule: Q01DX009 (ip), vehicle: water) is reported as 97 % of control. The T/C (dose: 6.25 mg/kg/injection, schedule: Q04DX003 (ip), vehicle: water) was 100 % of control and the T/C (dose: 12.5 mg/kg/injection, schedule: Q04DX003 (ip), vehicle: water) was 105 % of control.
With O=C(Cl)c1ccc(OC(Cl)(Cl)Cl)cc1 the T/C [12] was 109 % of control, the T/C [13] was 100 % of control and the T/C [14] was 92 % of control. The T/C [15] was 95 % of control and the T/C [16] was 94 % of control.
For COC(=O)CC(=O)c1cc(C(C)(C)C)cc(C(C)(C)C)c1, the T/C (dose: 100.0 mg/kg/injection, schedule: Q04DX003 (ip), vehicle: DMSO) was 96 % of control and the T/C (dose: 200.0 mg/kg/injection, schedule: Q04DX003 (ip), vehicle: DMSO) was 103 % of control.
In the case of O=C(Nc1ccccc1)C1C2CC3OC(=O)C1C3C2 (stereo not drawn), the T/C [3] is reported as 104 % of control and 102 % of control, the T/C [6] is reported as 95 % of control and 92 % of control and the T/C [9] is reported as 98 % of control and 104 % of control.
With CSc1ncc(CO)c(NCc2ccco2)n1 the T/C [25] was 98 % of control, the T/C [26] was 98 % of control and the T/C [27] was 98 % of control.
With c1ccc2c(OCCN3CC3)nccc2c1 the T/C [18] was 103 % of control and the T/C [19] was 113 % of control.
In the case of Nc1ccccc1SC(CC(=O)c1ccccc1)c1c(Cl)cccc1Cl (stereo not drawn), the T/C (dose: 100.0 mg/kg/injection, schedule: Q01DX005 (ip), vehicle: Klucel (hydroxypropylcellulose) (HPC)) is reported as 94 % of control, the T/C (dose: 100.0 mg/kg/injection, schedule: Q04DX002 (ip), vehicle: Klucel (hydroxypropylcellulose) (HPC)) is reported as 110 % of control and the T/C (dose: 200.0 mg/kg/injection, schedule: Q01DX005 (ip), vehicle: Klucel (hydroxypropylcellulose) (HPC)) is reported as 108 % of control. For the same compound, the T/C (dose: 200.0 mg/kg/injection, schedule: Q04DX002 (ip), vehicle: Klucel (hydroxypropylcellulose) (HPC)) was 95 % of control, the T/C (dose: 400.0 mg/kg/injection, schedule: Q01DX005 (ip), vehicle: Klucel (hydroxypropylcellulose) (HPC)) was 94 % of control and the T/C (dose: 400.0 mg/kg/injection, schedule: Q04DX002 (ip), vehicle: Klucel (hydroxypropylcellulose) (HPC)) was 95 % of control.
For COC(=O)C(CCSC)NC(=O)C1CSC(C)(C)N1C=O (stereo not drawn), the T/C [3] was 97 % of control, the T/C [6] was 97 % of control and the T/C [9] was 101 % of control.
C/C(=C/c1ccccc1)C(=O)NN was tested, and the T/C (dose: 80.0 mg/kg/injection, schedule: Q01DX001 (ip), vehicle: saline with Tween-80) was 98 % of control and the T/C (dose: 160.0 mg/kg/injection, schedule: Q01DX001 (ip), vehicle: saline with Tween-80) was 106 % of control.
For N#Cc1c[nH]n2c(=S)ncnc12, the T/C [21] was 105 % of control and the T/C [22] was 101 % of control.
For C=C(C)COc1ccc(Nc2ccccc2)cc1, the T/C [25] was 92 % of control, the T/C [26] was 95 % of control and the T/C [27] was 89 % of control.
In the case of O=C(Nc1ccccc1C(F)(F)F)c1ccc(C(=O)Nc2ccccc2C(F)(F)F)cc1, the T/C [21] is reported as 90 % of control, the T/C [17] is reported as 90 % of control and the T/C [22] is reported as 87 % of control. For the same compound, the T/C (dose: 200.0 mg/kg/injection, schedule: Q04DX003 (ip), vehicle: saline with Tween-80) was 90 % of control, the T/C [23] was 100 % of control and the T/C [24] was 91 % of control.

Source: PubChem BioAssay AID248 (DTP/NCI, 2004)
